Assay [1] has as its target T1, AHR (Homo sapiens, UniProt P35869).
T1 construct: U87 MG glioblastoma cells (ATCC #HTB-14) endogenously expressing AHR; endogenous in cells; host or cells: U87 MG glioblastoma cells (ATCC #HTB-14)
T1 sequence (P35869 11-848): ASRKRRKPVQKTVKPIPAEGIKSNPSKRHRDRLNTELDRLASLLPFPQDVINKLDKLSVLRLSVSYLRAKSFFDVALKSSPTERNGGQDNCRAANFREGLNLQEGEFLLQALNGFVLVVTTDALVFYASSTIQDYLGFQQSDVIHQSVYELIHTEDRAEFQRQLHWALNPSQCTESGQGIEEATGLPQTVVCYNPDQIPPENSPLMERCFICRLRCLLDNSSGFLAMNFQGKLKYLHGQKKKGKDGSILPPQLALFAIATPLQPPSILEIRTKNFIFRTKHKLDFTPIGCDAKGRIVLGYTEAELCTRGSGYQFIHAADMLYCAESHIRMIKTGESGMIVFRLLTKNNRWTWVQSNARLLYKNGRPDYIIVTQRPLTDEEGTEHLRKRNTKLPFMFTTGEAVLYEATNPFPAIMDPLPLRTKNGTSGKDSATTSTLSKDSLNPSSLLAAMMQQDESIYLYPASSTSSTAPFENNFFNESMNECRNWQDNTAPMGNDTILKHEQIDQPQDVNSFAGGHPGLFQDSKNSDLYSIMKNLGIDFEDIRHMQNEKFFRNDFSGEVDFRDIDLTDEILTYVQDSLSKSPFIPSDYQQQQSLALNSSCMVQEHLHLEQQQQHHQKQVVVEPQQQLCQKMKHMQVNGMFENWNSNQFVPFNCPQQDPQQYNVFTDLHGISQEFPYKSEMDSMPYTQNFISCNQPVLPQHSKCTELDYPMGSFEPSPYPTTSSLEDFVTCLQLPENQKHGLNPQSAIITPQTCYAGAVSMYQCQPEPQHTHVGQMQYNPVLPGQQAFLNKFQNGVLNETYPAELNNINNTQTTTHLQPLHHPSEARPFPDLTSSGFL
In words: In vitro assay 1: antagonism in human cell line (AHR transactivation, firefly luciferase reporter, kynurenic acid prestimulated). Type of assay: cell-based. As to conditions: AHR Antagonism Human IC50 [M]. In outline:
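Antagonism is measured against kynurenic acid prestimulation in U87 MG glioblastoma cells carrying stable DRE-luciferase and Renilla reporters. Positive inhibition control: 150 μM kynurenic acid with 5 μM staurosporine. Values are normalized to controls; repeats are averaged or given as medians.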

The target of assay [2] is T2, AHR (Mus musculus, UniProt P30561).
T2 sequence (P30561 1-848 P471L/N533S/M589L): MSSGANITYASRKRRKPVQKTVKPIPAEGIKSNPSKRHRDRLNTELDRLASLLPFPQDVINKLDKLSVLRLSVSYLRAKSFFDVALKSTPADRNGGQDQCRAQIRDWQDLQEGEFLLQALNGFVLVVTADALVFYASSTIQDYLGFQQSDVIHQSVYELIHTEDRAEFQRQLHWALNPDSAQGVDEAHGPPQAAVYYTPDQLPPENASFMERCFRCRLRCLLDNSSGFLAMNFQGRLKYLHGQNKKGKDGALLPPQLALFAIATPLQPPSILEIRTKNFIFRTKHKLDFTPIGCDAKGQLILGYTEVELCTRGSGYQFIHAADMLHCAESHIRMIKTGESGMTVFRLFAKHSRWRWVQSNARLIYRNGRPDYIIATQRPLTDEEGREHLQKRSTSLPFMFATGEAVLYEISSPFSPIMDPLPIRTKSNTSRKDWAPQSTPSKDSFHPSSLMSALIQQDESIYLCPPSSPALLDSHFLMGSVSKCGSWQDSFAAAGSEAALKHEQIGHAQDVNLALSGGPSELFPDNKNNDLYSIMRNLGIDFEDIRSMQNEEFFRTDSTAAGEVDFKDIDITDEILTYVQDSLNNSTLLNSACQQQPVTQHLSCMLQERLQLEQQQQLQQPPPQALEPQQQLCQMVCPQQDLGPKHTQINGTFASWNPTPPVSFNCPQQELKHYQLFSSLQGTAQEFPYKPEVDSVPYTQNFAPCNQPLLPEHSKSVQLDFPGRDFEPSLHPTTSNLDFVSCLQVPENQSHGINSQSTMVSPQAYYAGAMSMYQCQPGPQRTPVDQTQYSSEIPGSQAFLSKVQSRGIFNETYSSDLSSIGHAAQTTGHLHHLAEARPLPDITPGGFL
Briefly: In vitro assay 3: antagonism in mouse cell line (AHR transactivation, firefly luciferase reporter, kynurenic acid prestimulated). The assay is classed as cell-based. In outline: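 Antagonism read as reduced firefly luciferase signal (SteadyGlo) from a stably transfected AHR/DRE reporter in a mouse line prestimulated with kynurenic acid. Data normalized to controls, the full-inhibition control being cells without kynurenic acid; multiple determinations given as average or median values.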
In general terms: A reporter such as luciferase makes a cellular process visible.

Where [3] appears, read: Hepa 1c1c7 cells, 200 μM kynurenic acid, 20 hours, firefly luciferase reporter, read-out: AHR Antagonism Mouse IC50.
Where [4] appears, read: mouse Hepa 1c1c7 cells, 200 μM kynurenic acid, 20 hours, read-out: AHR Antagonism Mouse IC50.

Where two headings read alike, the source gives them in different places.

For `O=C1NCCCC[C@H]1Nc1nc2c(Cl)cccc2c2nc(-c3cnn(C4CC4)c3)nn12` [Example 816, (3R)-3-{[7-chloro-2-(1-cyclopropyl-1H-pyrazol-4-yl)[1,2,4]triazolo[1,5-c]quinazolin-5-yl]amino}azepan-2-one], the values for the half-maximal inhibitory concentration (IC50) against AHR [1] (firefly luciferase reporter) and at AHR [2] (setting [3]) were 1.05e-09 M and 0.99 nM, respectively.

`C[C@@H](Nc1nc2c(Br)cccc2c2nc(-c3cnn(C)c3)nn12)C(=O)NCCN1CCCCC1` [Example 896, N^2-[7-bromo-2-(1-methyl-1H-pyrazol-4-yl)[1,2,4]triazolo[1,5-c]quinazolin-5-yl]-N-[2-(piperidin-1-yl)ethyl]-D-alaninamide]: the results for the 50% inhibitory concentration (IC50) at AHR [1] (firefly luciferase reporter) and at AHR [2] (setting [3]) were 2.72e-07 M and 133 nM, respectively.

Consider `O=C1NCCC[C@H]1Nc1nc2ccccc2c2nc(-c3ccccc3OC(F)(F)F)nn12` [Example 458, (3R)-3-({2-[2-(trifluoromethoxy)phenyl][1,2,4]triazolo[1,5-c]quinazolin-5-yl}amino)piperidin-2-one], for which the IC50 (as a rule, the concentration that gives 50% inhibition) against AHR [1] was 6.37e-08 M; at AHR [2] (setting [4]), 28 nM.

As to `O=C1NCCCC[C@@H]1Nc1nc2ccccc2c2nc(-c3ccc(Br)cc3OC(F)(F)F)nn12` [Example 682, (3S)-3-({2-[4-bromo-2-(trifluoromethoxy)phenyl][1,2,4]triazolo[1,5-c]quinazolin-5-yl}amino)azepan-2-one], the IC50 at AHR [1] came out at 7.43e-08 M; at AHR [2] (setting [4]), 6.82 nM.

With `COc1ccc(-c2nc3c4cccc(Br)c4nc(N[C@H]4CCCCNC4=O)n3n2)c(OC(F)(F)F)c1` [Example 566, (3S)-3-({7-bromo-2-[4-methoxy-2-(trifluromethoxy)phenyl][1,2,4]triazolo[1,5-c]quinazolin-5-yl}amino)azepan-2-one], the IC50 against AHR [1] was determined as 1.76e-07 M; on AHR [2] (setting [4]) it was 20.8 nM.

On to `COC(=O)[C@H](Nc1nc2ccccc2c2nc(-c3cccc(OC)c3)nn12)C(C)C` [Example 104, methyl N-[2-(3-methoxyphenyl)[1,2,4]triazolo[1,5-c]quinazolin-5-yl]-D-valinate], for which the half-inhibitory concentration (IC50) against AHR [1] was determined as 1.12e-08 M; at AHR [2] (setting [4]) it was 2.43 nM.

For the molecule `COc1cccc(-c2nc3c4ccccc4nc(N[C@H](CCS(C)(=O)=O)C(N)=O)n3n2)c1` [Example 113, (2R)-2-{[2-(3-methoxyphenyl)[1,2,4]triazolo[1,5-c]quinazolin-5-yl]amino}-4-(methylsulfonyl)butanamide], the half-maximal inhibitory concentration (IC50) amounted to 1.58e-05 M against AHR [1] and 719 nM at AHR [2] (setting [4]).

`COc1cccc(-c2nc3c4ccccc4nc(N[C@H](C)C(=O)NC4CC4)n3n2)c1` [Example 106, N-cyclopropyl-N^2-[2-(3-methoxyphenyl)[1,2,4]triazolo[1,5-c]quinazolin-5-yl]-D-alaninamide]: the 50% inhibitory concentration (IC50) against AHR [1] is 7.97e-09 M; at AHR [2] (setting [4]) it was 4.91 nM.

As for `COc1ccc(-c2nc3c4cccc(Br)c4nc(N[C@@H]4CCCCNC4=O)n3n2)c(C(F)(F)F)c1` [Example 569, (3R)-3-({7-bromo-2-[4-methoxy-2-(trifluoromethyl)phenyl][1,2,4]triazolo[1,5-c]quinazolin-5-yl}amino)azepan-2-one], the half-maximal inhibitory concentration (IC50) against AHR [1] came out at 8.4e-09 M; at AHR [2] (setting [4]) it was 4.3 nM.

For the molecule `CCC[C@@H](Nc1nc2c(Br)cccc2c2nc(-c3ccc(C#N)cc3)nn12)C(=O)NC` [Example 562, N^2-[7-bromo-2-(4-cyanophenyl)[1,2,4]triazolo[1,5-c]quinazolin-5-yl]-N-methyl-D-norvalinamide], the values for the IC50 on AHR [1] and on AHR [2] (setting [4]) were 1.37e-09 M and 2.98 nM, respectively.

As for `Cc1ccccc1-c1nc2c3ccccc3nc(NC3CCCNC3=O)n2n1` (single isomer, unassigned) [Example 48, 3-{[2-(2-methylphenyl)[1,2,4]triazolo[1,5-c]quinazolin-5-yl]amino}piperidin-2-one], the half-inhibitory concentration (IC50) on AHR [1] stood at 3.2e-08 M; on AHR [2] (setting [4]) it was 62 nM.

On to `COc1cccc(-c2nc3c4c(C)cccc4nc(NC4CCNC4=O)n3n2)c1` (single isomer, unassigned) [Example 191, 3-{[2-(3-methoxyphenyl)-10-methyl[1,2,4]triazolo[1,5-c]quinazolin-5-yl]amino}pyrrolidin-2-one], for which the 50% inhibitory concentration (IC50) worked out at 1.96e-07 M against AHR [1] and 1090 nM at AHR [2] (read-out: AHR Antagonism Mouse IC50, mouse Hepa 1c1c7 cells, 200 μM kynurenic acid, 20 hours).

Take `COc1cccc(-c2nc3c4ccc(F)cc4nc(N[C@@H]4CCCCNC4=O)n3n2)c1` [Example 148, (3R)-3-{[8-fluoro-2-(3-methoxyphenyl)[1,2,4]triazolo[1,5-c]quinazolin-5-yl]amino}azepan-2-one]: the IC50 at AHR [1] amounted to 8.12e-07 M; on AHR [2] (setting [4]) it was 2.41 nM.

With `O=C1NCCCC[C@H]1Nc1nc2ccccc2c2nc(-c3cnccn3)nn12` [Example 689, (3R)-3-{[2-(pyrazin-2-yl)[1,2,4]triazolo[1,5-c]quinazolin-5-yl]amino}azepan-2-one], the figures for the half-inhibitory concentration (IC50) against AHR [1] and on AHR [2] (setting [4]) were 1.6e-07 M and 156 nM, respectively.

In the case of `CC(C)[C@@H](Nc1nc2c(Br)cccc2c2nc(-c3cnn(C)c3)nn12)C(=O)N1CCN(C)CC1` [Example 928, (2R)-2-{[7-bromo-2-(1-methyl-1H-pyrazol-4-yl)[1,2,4]triazolo[1,5-c]quinazolin-5-yl]amino}-3-methyl-1-(4-methylpiperazin-1-yl)butan-1-one], the IC50 against AHR [1] (firefly luciferase reporter) worked out at 1.81e-08 M; on AHR [2] (setting [3]), 5.76 nM.

Consider `CC[C@@H](Nc1nc2ccccc2c2nc(-c3cc(Cl)ccc3OC(F)(F)F)nn12)C(N)=O` [Example 504, (2R)-2-({2-[5-chloro-2-(trifluoromethoxy)phenyl][1,2,4]triazolo[1,5-c]quinazolin-5-yl}amino)butanamide], for which the IC50 is 3.65e-07 M at AHR [1] and 37.9 nM at AHR [2] (setting [4]).

With `COc1ccc(-c2nc3c4ccccc4nc(N[C@@H]4CCCCNC4=O)n3n2)cc1C(F)(F)F` [Example 722, (3R)-3-({2-[4-methoxy-3-(trifluoromethyl)phenyl][1,2,4]triazolo[1,5-c]quinazolin-5-yl}amino)azepan-2-one], the half-maximal inhibitory concentration (IC50) against AHR [1] is 7.2e-09 M; on AHR [2] (setting [4]), 6.63 nM.

On to `Cc1n[nH]c(C)c1-c1nc2c3ccccc3nc(N[C@@H]3CCCCNC3=O)n2n1` [Example 536, (3R)-3-{[2-(3,5-dimethyl-1H-pyrazol-4-yl)[1,2,4]triazolo[1,5-c]quinazolin-5-yl]amino}azepan-2-one], for which the IC50 at AHR [1] came to 8.6e-08 M; on AHR [2] (setting [4]) it was 94.7 nM.

For the molecule `N#Cc1cccc2c1nc(N[C@@H]1CCCCNC1=O)n1nc(-c3cnn(C(F)F)c3)nc21` [Example 764, 2-[1-(difluoromethyl)-1H-pyrazol-4-yl]-5-{[(3R)-2-oxoazepan-3-yl]amino}[1,2,4]triazolo[1,5-c]quinazoline-7-carbonitrile], the 50% inhibitory concentration (IC50) came to 1.86e-09 M against AHR [1] and 1.73 nM on AHR [2] (setting [4]).

With `O=C1NCC[C@H]1Nc1nc2ccccc2c2nc(-c3ccccc3OC(F)(F)F)nn12` [Example 459, (3R)-3-({2-[2-(trifluoromethoxy)phenyl][1,2,4]triazolo[1,5-c]quinazolin-5-yl}amino)pyrrolidin-2-one], the IC50 against AHR [1] amounted to 7.9e-08 M; on AHR [2] (setting [4]), 30.2 nM.

Source of the values: patent US20230113037A1 (Bayer Aktiengesellschaft, priority 2019, published 2023).
